# Results published in patent publication US12085575B2, “Compositions and methods for detecting proteinopathies” (BOARD OF SUPERVISORS OF LOUISIANA STATE UNIVERSITY AND …, priority 2011, dated 2024).
# How the values were obtained:
# Format in all cases: cell-based, human
# [1] = system: polyubiquitylated proteins; assay: Camptothecin-induced degradation of polyubiquitylated proteins in A-T cells; conditions: CPT 10 μm, 24 hr
# Description: To test the generality of this observation, the anticancer drug camptothecin (CPT), a genotoxic agent (37, 48-50), which is known to sensitize A-T cells (37), like UV, was used to induce degradation of polyubiquitylated proteins in A-T cells. In FIG. 8E, A-T cells were treated with camptothecin (CPT; 10 μm) in the presence or absence of Bafl (1 nm) for 24 hr. Ubiquitin conjugated proteins using anti-ubiquitin antibodies were detected as described herein for FIG. 8A. The experiment was repeated three times.
# Mfn2 [2] = assay: MFN2 modification and degradation in HEK293 cells treated with CCCP; conditions: HEK cells, CCCP 10 μM, 24 h
# Description: MFN2 is conjugated to SUMO-1/2/3 and ubiquitin, and is degraded in HEK293 cells treated with CCCP. We confirmed CCCP-induced MFN2-SUMO/ubiquitin modification and degradation in “normal” HEK293 cells. […] However, CCCP-mediated decrease in MFN2 was proteasome-dependent (FIG. 37D). Together, our results using A-T and HEK293 cells reveal that MFN2 is SUMOylated in response to CCCP treatment.
# Mfn2 [3] = assay: Mfn2 modification and degradation in A-T/LV shRNA cells treated with mitochondrial depolarizing agents
# Description: Immunoblotting Analysis of Mitochondrial Proteins—Mitochondria were isolated from A-T/LV control and ISG15 shRNA cells using the Miochondrial Isolation Kit (Thermo Scientific Company, 89874). The Dounce homogenization protocol described by the manufacturer was used to isolate mitochondria from cells. Mitochondrial pellets were resuspended in lysis buffer containing 50 mM Tris pH 7.5 and 4% (v/v) SDS. Samples were homogenized and boiled for 10 min. Lysates containing equal protein were then mixed with 6× Laemmli SDS sample buffer (3× final concentration). Samples were boiled again and mitochondrial proteins were analyzed by SDS-PAGE. Immunoblotting analyses using either anti-ISG15 (raised against human ISG15) (20), anti-ubiquitin (gift from Dr. Arthur Haas, at LSUHSC—New Orleans), or anti-mitofusin 2 (Abcam, ab88569) antibodies were carried out using the ECL Western procedure (Pierce, 34076) and the BioRad VersaDoc Imaging System (BioRad). Immunoblotting Analysis of HA Polyubiquitylated Proteins in Cells: Cells were transfected with HA-ubiquitin using the PolyFect transfection reagent (Qiagen, 301105). Twenty four hours after transfection, mitochondria were isolated as described above. Mitochondrial lysis, SDS-PAGE, and immunoblotting analysis to detect HA-ubiquitin conjugated proteins using anti-HA antibodies were carried out as described above. Immunoblotting Analysis of Mfn2 in Cells: Cells were lysed in lysis buffer containing 50 mM Tris-HCl, pH 7.5, 2% SDS, and protease inhibitor cocktail. Lysates were sonicated, boiled, and cleared by centrifugation. Lysates containing equal protein were then mixed with 6× Laemmli SDS sample buffer (3× final concentration). Samples were boiled again and proteins were separated by 15% SDS-PAGE. Immunoblotting analysis was carried out using anti-Mfn2 antibodies (Abcam) as described above. Intensity of the Mfn2 bands was quantitated using BioRad Quantity One software. Statistical analysis—Statistical analysis was carried out using GraphPad software.
# Many outer mitochondrial membrane (OMM) proteins are ubiquitylated and degraded via the 26S proteasome prior to mitophagy in cells treated with the mitochondrial depolarizing agents (28,29). To test whether ISG15 inhibits polyubiquitylation of OMM proteins, we assessed the fate of Mfn2, an OMM protein and proteasome substrate, in A-T/LV-control and A-T/LV-ISG15-silenced cells treated with two different mitochondrial depolarizing agents, valinomycin and carbonylcyanide m-chlorophenylhydrazone (CCCP). Consistent with the literature reports (29,35,36), we observed a ladder of high molecular weight anti-Mfn2 cross-reactive bands above the 86 kDa Mfn2 protein band that is reminiscent of polyubiquitylation, in both ISG15-silenced and ISG15 overexpressing A-T cells (FIGS. 34 A and B, left panels). The endogenous level of these high molecular weight Mfn2 cross-reactive bands was remarkably higher in ISG15-silenced as compared to the ISG15-overexpressing A-T cells in the absence of any drugs (FIGS. 34A and B, first panels, compare lanes 1 and 4). […] In contrast, the level of these Mfn2 cross-reactive high molecular weight bands decreased under the same drug treatment conditions in ISG15-silenced A-T cells (FIGS. 34A and B, first panels, lanes 4-6, and the accompanying bar graph in the second panel for quantitation). […] The bar graphs in FIGS. 34A and B, third panels, show mean values of the ratio between free Mfn2 (86 kDa band) and actin proteins (±SEM) in CCCP-treated A-T/LV-control and ISG15 shRNA cells measured from eight independent experiments, and valinomycin-treated A-T/LV-control and ISG15 shRNA cells measured from three independent experiments respectively.
SMILES,degradation of endogenous polyubiquitylated proteins [1],"conjugation of SUMO-1, SUMO-2/3, and ubiquitin to MFN2 (Mfn2 [2])",degradation of MFN2 (Mfn2 [2]),free MFN2 protein level (Mfn2 [3]; CCCP-treated ISG15 overexpressing A-T cells),"decrease in the free MFN2 level (Mfn2 [3]; ISG15-silenced A-T cells, CCCP 24 h, cell lysates and immunoprecipitates)","free Mfn2 protein level (Mfn2 [3]; ISG15 overexpressing A-T cells, 24 hr)"
"CC[C@@]1(O)C(=O)OCc2c1cc1n(c2=O)Cc2cc3ccccc3nc2-1 [CPT, camptothecin]",induced degradation,–,–,–,–,–
"N#CC(C#N)=NNc1cccc(Cl)c1 [CCCP, carbonylcyanide m-chlorophenylhydrazone]",–,induces conjugation,20%,remained unaffected,20%,slightly increased
